Measurements: the NIST ThermoML archive (doi:10.1016/j.jct.2006.07.013)
± gives the expanded uncertainty stated by the source.

Assays:
[1] = 298.15 K, 101.33 kPa, Liquid; for speed of sound: Sing-around technique in a fixed-path interferometer
[2] = refractive index (Na D-line) (dimensionless); conditions: 298.15 K, 101.33 kPa, Liquid

Row | SMILES | mass density [1] [kg/m3] | speed of sound [1] [m/s] | refractive index ([2]; Standard Abbe refractometry) | mass density ([1]; Vibrating tube method) [kg/m3] | refractive index ([2]; refractometer)
1 | COC(C)=O [methyl ethanoate] | 927.36 ± 0.65 | 1154 ± 1.2 | 1.35893 ± 0.00037 |  | 
2 | Cc1ccccc1 [toluene] | 862.34 ± 0.18 | 1306.3 ± 0.7 | 1.4939 ± 0.00031 |  | 
3 | CCCCCCC(=O)OC [methyl heptanoate] |  | 1254.6 ± 1.2 |  | 875.88 ± 0.23 | 1.40945 ± 0.00021
4 | CCCCOC(C)=O [butyl ethanoate] | 876.35 ± 1.9 | 1193.1 ± 2.1 | 1.39191 ± 0.00051 |  | 
